Data published in patent US8637038B2, “Methods for inhibiting allograft rejection” (Rigel Pharmaceuticals, Inc., priority 2011, dated 2014).
“And” between values parts separate entries of the source, which are not always exact repeats. Equal values may be shown once. Read-outs that look alike come from different tables or passages of the source.

Key:
JAK2 = experiment: EPO-dependent survival of cultured human erythroid progenitor cells (CHEP); format: cell-based; conditions: for EC50: Homo sapiens, Erythroid progenitor cell, read-out: EPO CHEP Survival EC50
Procedure: The erythropoietin (EPO)-dependent survival of cultured human erythroid progenitor cells (CHEPs) was determined using CellTiter-Glo® Luminescent Cell Viability Assay (Promega). Human primary T cell activation was assessed by measuring IL-2 production by ELISA (R&D Systems, Minneapolis, Minn., USA) following plate-bound anti-CD3 and anti-CD28 stimulation (Anti-Human CD3; BD Biosciences; Anti-Human CD28; Immunotech; Prague, Czech Republic). The enzymatic activity of tryptase released by human cultured mast cells (CHMCs) upon stimulation with IgE was quantified by cleavage of the synthetic fluorescent peptide substrate Z-Ala-Lys-Arg-7-amino-4-methylcoumarin (MP Biomedicals, Solon, Ohio, USA) in tryptase buffer. B-cell receptor-dependent Erk phosphorylation was measured in Ramos cells by intracellular FACS (anti-pT202/pY204-ERK1/2-AlexaFluor488; BD Biosciences). Cell proliferation assays were performed using A549 epithelial cells and H1299 lung carcinoma cells using nuclear staining to measure cell numbers (4′6-diamidino-2-phenylindole, dihydrochloride (DAPI; Invitrogen, Darmstadt, Germany)).

[1] = test system: Lew recipients of heterotopic BN heart transplants; experiment: Five-day heart allograft study: CD3+/CD68+ immunohistochemistry; format: in vivo, rat; conditions: for CD68+ cell infiltration compared to Tac HD group / CD68+ cells compared to no medication group: HD groups, five days, p<0.001; for CD68+ and CD3+ cell infiltration compared to Tac LD group: LD groups (Compound I 15 mg/kg BID, Compound III 5 mg/kg BID), p<0.05
From the text: (§1) Male Brown Norway (BN) and Lewis (Lew) rats weighing 350 g were purchased from Harlan (Indianapolis, Ind.) and were housed under conventional conditions. All animals were fed standard rat chow and water ad libitum and received humane care in compliance with the Principles of Laboratory Animal Care formulated by the National Society for Medical Research and the Guide for the care and Use of Laboratory Animals published by the National Institutes of Health (National Institutes of Health publication No. 85-23, revised 1985). Allogeneic (BN-to-Lew) and syngeneic (Lew-to-Lew) heterotopic heart transplantations were performed as described previously (Ono et al., J. Thorac. Cardiovasc. Surg. 57:225-229, 1969). In brief, rats were anaesthetized using 2% isoflurane. The donor received an intravenous bolus of 500 I.U. heparin. Cardiac arrest was achieved using 20 ml Bretschneider solution (Custodiol, Dr. F. Koehler Chemie, Bensheim, Germany). […] Heart-beating score was assessed directly after transplantation for each animal from score 0 (no palpable contraction) to 4 (strong and regular contraction). Only animals with beating scores of 4 were included into the study.
(§2) Compound I and Compound III were provided by Rigel (South San Francisco, Calif.) and Tacrolimus was provided by Astellas (Munich, Germany). All drugs were administrated orally each in two different concentrations: Compound I LD (15 mg/kg BID; n=6) and HD (60 mg/kg BID; n=6); Compound III LD (5 mg/kg BID; n=6) and HD (20 mg/kg BID; n=6); Tac LD (1 mg/kg QD; n=6) and HD (4 mg/kg QD; n=6). Administration of all drugs was performed every day at the same time points. Tacrolimus was applied only once a day (QD) every 24 hours. During administration of Compound I (BID) and Compound III (BID) a 12 hour pause was kept in between each drug application.
Lew recipients of heterotopic BN heart transplants were randomly assigned to their group. Animals were either left untreated (groups 1 and 2; see Table 1,5-day study) or received their group specific medication (groups 3-8; see Table 1,5-day study) by oral application. An untreated syngeneic transplant group Lew-Lew was generated as control.
Paraffin-embedded tissue sections were deparaffinized and rehydrated. Sections were incubated with protein blocking solution (ZytoChem Plus (AP) Polymer Kit; Zytomed Systems GmbH, Berlin, Germany) to prevent background staining. After antigen retrieval, specific antibodies against rat CD68 and CD3 (Serotec, Raleigh, N.C.) were applied to identify macrophages and lymphocytes, respectively, and visualized via alkaline phosphatase and new fuchsin substrate reaction (Zytomed System GmbH; Dako, Carpinteria, Calif.). Sections were counterstained by H+E (Waldeck). After overnight incubation with primary antibody solution and subsequent washing, enhancement reagent (ZytoChem) was applied, followed by enzymatic reaction of alkaline phosphatase induced by New Fuchsin Substrate System (Dako).
Inflammatory cell densities within the myocardium were assessed with the Leica QWin software (Leica Microsystems GmbH, Wetzlar, Germany) and expressed as cells/high-power field (HPF). Histological analyses of all stainings were done by a pathologist.

[2] = test system: BN-to-Lew heterotopic heart transplantations; experiment: Graft survival study after 10-day treatment, with combination index; format: in vivo, rat; conditions: no medication 7±0 days
From the text: as §1, §2
BN-to-Lew heterotopic heart transplantations were performed. Recipient animals were treated for 10 days according to Table 1 (10 day survival study group) and graft survival was monitored by daily palpation of the beating donor heart through the abdominal wall. Scoring was assessed according to heart-beating score of 0 to 4. The time of rejection was defined as the last day of palpable cardiac contractions and graft rejection was confirmed by laparotomy.
The median-effect principle of Chou (in Synergism and Antagonism in Chemotherapy, Chou and Rideout, eds, pp. 61-102, Academic Press, 1991) is based on the premise that the effect of each agent is related to its dose and, therefore, can be calculated using the following equation: (fa/fu)=(D/Dm)m, where fa and fu represent the fractions of the system that are affected (% inhibition or rather days of survival beyond controls) and unaffected (1−fa), respectively, by the drug at dose D. Full protection (fa=1) is defined as at least a 28-day survival of allografts. Dm is the dose required for 50% inhibition (ED50), the median effect (m) is a coefficient that describes the sigmoidicy of the dose-effect curve. The interaction between two drugs is assessed by the combination index (CI) equation for the doses to achieve x % inhibition:
[formula] for the mutually nonexclusive case, where each drug has a different mode of action. A computer software program was used to determine the dose-effect parameters (Dm, m, and r), and the CI values (CalcuSyn, Biosoft, Cambridge, United Kingdom).
Graft survival was monitored by daily palpation of the beating donor heart through the abdominal wall and treatment of animals was stopped after 10 days.

[3] = HD (Compound I 60 mg/kg BID, Compound III 20 mg/kg BID, Tac 4 mg/kg QD) for 10 days
[4] = LD (Compound I 15 mg/kg BID, Compound III 5 mg/kg BID, Tac 1 mg/kg QD) for 10 days

Structure (SMILES) | inhibition of JAK2-dependent CHEP differentiation and survival in response to EPO (JAK2) | EC50 (JAK2; upstream kinase JAK2) [nM] | CD68+ cell infiltration compared to Tac HD group [1] | CD68+ cells compared to no medication group [1] | CD68+ and CD3+ cell infiltration compared to Tac LD group [1] | graft survival, mean [2, 3] | graft survival, mean [2, 4] [days] | EC50 (JAK2) [nM]
COc1cc(Nc2ncc(C)c(Nc3ccc4oc(=O)[nH]c4c3)n2)cc(C)c1F [Compound I, 5-(2-(4-fluoro-3-methoxy-5-methylphenylamino)-5-methylpyrimidin-4-ylamino)benzo[d]oxazol-2(3H)-one] | limited inhibition | 490 ± 246 | significantly less | significantly reduced | less CD68+ and CD3+ cell infiltration | 22 ± 5 days and 22 ± 6 days | 15 ± 3 | 
COc1cc(Nc2ncc(C)c(Nc3ccc4oc(=O)[nH]c4c3)n2)cc(C)c1C [Compound III, 5-(2-(3-methoxy-4,5-dimethylphenylamino)-5-methylpyrimidin-4-ylamino)benzol[d]oxazol-2-(3H)-one] | limited inhibition |  | significantly less | significantly reduced | less CD68+ and CD3+ cell infiltration | 20 ± 4 days and 20 ± 2 days | 13 ± 2 | 1110 ± 339
